Earlier results in patent US20140018251A1, “Methods for Predicting Response to Anti-Cancer Therapy in Cancer Patients” (Stichting Het Nederlands Kanker Instituut, priority 2010, published 2014).

System: mouse mammary tumors lacking BRCA1

Question: Which “sensitivity of tumors” value does the source give for `N.N.[Cl][Pt][Cl]` [cisplatin] here?
Answer: The value was “extremely sensitive”.
